Measurements as given in PubChem BioAssay (NCI).
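Test compounds were applied to cells in 96-well plates for 48 hours at 5 doses. The concentration for 50% growth inhibition is given as GI50. TGI denotes the concentration required for complete inhibition of growth.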

How the values were obtained:
Test in all cases: NCI tumour cell line growth inhibition, 48 h
[1] = tested on: T-47D breast
[2] = tested on: RPMI-8226 leukemia
[3] = tested on: A498 renal
[4] = tested on: SW-620 colon
[5] = tested on: SF-539 CNS
[6] = tested on: HT29 colon
[7] = tested on: NCI-H460 lung
[8] = tested on: SK-MEL-28 melanoma
[9] = tested on: HS 578T breast
[10] = tested on: NCI-H23 lung
[11] = tested on: K-562 leukemia
[12] = tested on: TK-10 renal
[13] = tested on: MCF7 breast
[14] = tested on: MOLT-4 leukemia
[15] = tested on: OVCAR-5 ovarian
[16] = tested on: SNB-75 CNS
[17] = tested on: CAKI-1 renal
[18] = tested on: LOX IMVI melanoma
[19] = tested on: NCI-H226 lung
[20] = tested on: M14 melanoma
[21] = tested on: OVCAR-3 ovarian
[22] = tested on: 786-0 renal
[23] = tested on: HCT-15 colon
[24] = tested on: EKVX NSCLC
[25] = tested on: ACHN renal
[26] = tested on: OVCAR-8 ovarian
[27] = tested on: DU-145 prostate
[28] = tested on: MALME-3M melanoma
[29] = tested on: U251 CNS
[30] = tested on: BT-549 breast
[31] = tested on: PC-3 prostate
[32] = tested on: HCC-2998 colon
[33] = tested on: HOP-62 NSCLC
[34] = tested on: RXF 393 renal
[35] = tested on: SK-OV-3 ovarian
[36] = tested on: UACC-62 melanoma
[37] = tested on: OVCAR-4 ovarian
[38] = tested on: SK-MEL-5 melanoma
[39] = tested on: NCI/ADR-RES ovarian
[40] = tested on: HL-60(TB) leukemia
[41] = tested on: IGROV1 ovarian
[42] = tested on: MDA-MB-231 breast
[43] = tested on: CCRF-CEM leukemia
[44] = tested on: HCT-116 colon
[45] = tested on: KM12 colon
[46] = tested on: SN12C renal
[47] = tested on: MDA-MB-435
[48] = tested on: COLO 205 colon
[49] = tested on: SF-295 CNS
[50] = tested on: SR leukemia
[51] = tested on: SNB-19 CNS
[52] = tested on: SF-268 CNS
[53] = tested on: SK-MEL-2 melanoma
[54] = tested on: UACC-257 melanoma
[55] = tested on: UO-31 renal
[56] = tested on: NCI-H522 lung
[57] = tested on: A549 NSCLC

SMILES: COc1ccc(/C=C/C(=O)c2c(O)c(C)c(O)c3c2OC2=CC(O)=C(C(C)=O)C(=O)[C@]23C)cc1
- GI50 [1]: 521 nM
- TGI [1]: 2660 nM
- GI50 [2]: 596 nM
- TGI [2]: 1880 nM
- GI50 [3]: 770 nM
- TGI [3]: 2980 nM
- GI50 [4]: 659 nM
- TGI [4]: 3.79 µM
- GI50 [5]: 2710 nM
- TGI [5]: 6.44 µM
- GI50 [6]: 860 nM
- TGI [6]: 4.33 µM
- GI50 [7]: 898 nM
- TGI [7]: 3.71 µM
- GI50 [8]: 1150 nM
- TGI [8]: 4.72 µM
- GI50 [9]: 2900 nM
- TGI [9]: 8.76 µM
- GI50 [10]: 598 nM
- TGI [10]: 3.13 µM
- GI50 [11]: 627 nM
- TGI [11]: > 17.5 µM
- GI50 [12]: 597 nM
- TGI [12]: 5.1 µM
- GI50 [13]: 610 nM
- TGI [13]: 3.8 µM
- GI50 [14]: 698 nM
- TGI [14]: > 17.5 µM
- GI50 [15]: 4.2 µM
- TGI [15]: > 17.5 µM
- GI50 [16]: 2800 nM
- TGI [16]: 5.95 µM
- GI50 [17]: 694 nM
- TGI [17]: 8.19 µM
- GI50 [18]: 1800 nM
- TGI [18]: 4.57 µM
- GI50 [19]: 2610 nM
- TGI [19]: 6.75 µM
- GI50 [20]: 925 nM
- TGI [20]: 4.82 µM
- GI50 [21]: 649 nM
- TGI [21]: 2830 nM
- GI50 [22]: 2440 nM
- TGI [22]: 7.59 µM
- GI50 [23]: 706 nM
- TGI [23]: 3.48 µM
- GI50 [24]: 676 nM
- TGI [24]: 5.32 µM
- GI50 [25]: 1030 nM
- TGI [25]: 10.4 µM
- GI50 [26]: 631 nM
- TGI [26]: 2350 nM
- GI50 [27]: 1230 nM
- TGI [27]: 7.84 µM
- GI50 [28]: 2230 nM
- TGI [28]: 5.22 µM
- GI50 [29]: 801 nM
- TGI [29]: 4.21 µM
- GI50 [30]: 931 nM
- TGI [30]: 5.26 µM
- GI50 [31]: 611 nM
- TGI [31]: 2340 nM
- GI50 [32]: 1960 nM
- TGI [32]: 5.12 µM
- GI50 [33]: 1920 nM
- TGI [33]: 6.13 µM
- GI50 [34]: 1960 nM
- TGI [34]: 4.99 µM
- GI50 [35]: 1790 nM
- TGI [35]: 7.05 µM
- GI50 [36]: 891 nM
- TGI [36]: 3.48 µM
- GI50 [37]: 2210 nM
- TGI [37]: 10 µM
- GI50 [38]: 1290 nM
- TGI [38]: 3.61 µM
- GI50 [39]: 956 nM
- TGI [39]: 4.58 µM
- GI50 [40]: 603 nM
- TGI [40]: 5.85 µM
- GI50 [41]: 932 nM
- TGI [41]: 8.02 µM
- GI50 [42]: 1040 nM
- TGI [42]: 5.66 µM
- GI50 [43]: 702 nM
- TGI [43]: 9.97 µM
- GI50 [44]: 610 nM
- TGI [44]: 2490 nM
- GI50 [45]: 1040 nM
- TGI [45]: 5.9 µM
- GI50 [46]: 603 nM
- TGI [46]: 2480 nM
- GI50 [47]: 1920 nM
- TGI [47]: 4.11 µM
- GI50 [48]: 1930 nM
- TGI [48]: 4.54 µM
- GI50 [49]: 821 nM
- TGI [49]: 5.11 µM
- GI50 [50]: 1170 nM
- TGI [50]: > 17.5 µM
- GI50 [51]: 1560 nM
- TGI [51]: 7.8 µM
- GI50 [52]: 871 nM
- TGI [52]: 4.72 µM
- GI50 [53]: 961 nM
- TGI [53]: 3.72 µM
- GI50 [54]: 3.11 µM
- TGI [54]: 10 µM
- GI50 [55]: 3.45 µM
- TGI [55]: 10.6 µM
- GI50 [56]: 511 nM
- TGI [56]: 2330 nM
- GI50 [57]: 1330 nM
- TGI [57]: 7.26 µM

SMILES: CNc1ccccc1S(=O)(=O)c1ccccc1[N+](=O)[O-]
- TGI [1]: > 100000 nM
- TGI [2]: > 100000 nM
- TGI [3]: > 100000 nM
- TGI [4]: > 100 µM
- TGI [5]: > 100 µM
- TGI [6]: > 100 µM
- TGI [7]: > 100 µM
- TGI [8]: > 100 µM
- TGI [9]: > 100 µM
- TGI [10]: > 100 µM
- TGI [11]: > 100 µM
- TGI [12]: > 100 µM
- TGI [13]: > 100 µM
- TGI [14]: > 100 µM
- TGI [15]: > 100 µM
- TGI [16]: > 100 µM
- TGI [18]: > 100 µM
- TGI [19]: > 100 µM
- TGI [20]: > 100 µM
- TGI [21]: > 100000 nM
- TGI [22]: > 100 µM
- TGI [23]: > 100 µM
- TGI [24]: > 100 µM
- TGI [25]: > 100 µM
- TGI [27]: > 100 µM
- TGI [28]: > 100 µM
- TGI [29]: > 100 µM
- TGI [30]: 65.3 µM
- TGI [31]: > 100000 nM
- TGI [32]: > 100 µM
- TGI [33]: > 100 µM
- TGI [34]: > 100 µM
- TGI [35]: > 100 µM
- TGI [36]: > 100 µM
- TGI [37]: > 100 µM
- TGI [38]: > 100 µM
- TGI [39]: > 100 µM
- TGI [40]: > 100 µM
- TGI [41]: > 100 µM
- TGI [42]: > 100 µM
- TGI [43]: > 100 µM
- TGI [44]: > 100000 nM
- TGI [45]: > 100 µM
- TGI [46]: > 100000 nM
- TGI [47]: > 100 µM
- TGI [48]: > 100 µM
- TGI [49]: > 100 µM
- TGI [50]: > 100 µM
- TGI [51]: > 100 µM
- TGI [52]: > 100 µM
- TGI [53]: > 100 µM
- TGI [55]: > 100 µM
- TGI [56]: > 100000 nM
- TGI [57]: > 100 µM
